Laboratory results from patent publication US12290527B2, “Compositions and methods for reducing major thrombotic events in cancer patients” (Beth Israel Deaconess Medical Center, Inc., priority 2018, dated 2025).
“Also recorded” adds a separate entry of the source.

Key:
[1] = tested on: patients with advanced cancer; assay: Venous thromboembolism monitoring (clinical and end-of-study lower extremity ultrasound); assay type: in vivo, human
Description: Patients were monitored for the development of venous thromboembolism (VTE) throughout the two months of the study including an end-of-study bilateral lower extremity ultrasound to evaluate for asymptomatic lower extremity proximal DVT. Shown in FIG. 3A-FIG. 3D is the proportion of patients remaining free of VTE through the course of the study. […] There were three secondary VTE endpoints recorded in cohort A (FIG. 3C, two incidental catheter-associated DVT diagnosed with re-staging imaging and one lower extremity superficial venous clot). In cohort B (FIG. 3D), there were two secondary endpoint thrombotic events recorded (superficial venous clot of the lower extremity and incidental thrombosis observed in a lingular pulmonary vein on re-staging imaging).
(§1) The ratio of components in the capsules was: 1:0.25:0.02 of isoquercetin, vitamin C, and vitamin B3, respectively. It is noted that folic acid can optionally be present in the isoquercetin composition. Isoquercetin was taken orally daily for a total of 56 days. The first 5 patients of each cohort were monitored for evidence of toxicity prior (≥1 grade 3 or higher toxicity possibly related to isoquercetin) prior to the subsequent enrollment of 25 patients into each cohort. Patients were monitored for development of a venous thromboembolic event throughout the study including a bilateral lower extremity duplex ultrasound at end of study visit (day 56±5). Participants were taken off study if they developed an intercurrent illness that prevented further administration; unacceptable adverse events; poor compliance; participant preference; VTE or condition requiring therapeutic anticoagulation; requirement for prophylactic anticoagulation for >7 consecutive days; or grade ≥3 hemorrhage or otherwise met the ISTH criteria for major hemorrhage. Doses were held for grade 2 hemorrhage or platelet count <50×10^9/L.
The primary VTE endpoint included any symptomatic proximal or distal deep vein thrombosis, symptomatic PE or fatal PE diagnosed by autopsy, asymptomatic proximal DVT diagnosed by protocol-specified ultrasound at end of study. All suspected VTE were assessed by an independent adjudication committee that included central radiologic review of images. Criteria for new VTE included any of the following: A) A new noncompressibility of lower extremity deep venous segments by compression ultrasound (distal lower extremity thrombus qualified for primary VTE endpoint only if symptomatic). […] All other venous or arterial events were recorded and analyzed as secondary endpoints. […]

[2] = isoquercetin at 500 mg; prior pharmacokinetic studies; cited from earlier work
[3] = tested on: prothrombin time and partial thromboplastin time; assay: Standard coagulation assays (prothrombin time, partial thromboplastin time); assay type: in vivo, human
Protocol: (§2) Measurement of soluble P-selectin (CD62) was performed centrally using a commercial ELISA (Invitrogen/ThermoFisher Scientific #BMS219-4) and prothrombin time and partial thromboplastin time according to standard manufacturer protocol on a Sago Start 4 instrument (STA-Neoplastine CI Plus 5 #00606, STA-PTT Automate 5 #00595).

[4] = tested on: platelet-dependent thrombin generation; assay: Platelet-dependent thrombin generation assay on patient plasma; assay type: in vivo, human; conditions: follow-up vs baseline
Description: The platelet-dependent thrombin generation assay measures thrombin generation following platelet activation and requires PDI. […] Correlation between PDI inhibitory activity in plasma and platelet-dependent thrombin generation confirmed the PDI-dependency of thrombin generation (Spearman coefficient 0.29, P=0.004). There was significant correlation between increased plasma PDI inhibitory activity and decreased thrombin generation (Pearson correlation coefficient 0.45, P=0.002)
Platelet-dependent thrombin generation was performed according to previously published methodology (Stopa J D et al., JCI insight. 2017;2(1):e89373; Jurk K et al. J Thromb Haemost. 2011; 9(11):2278-90). Briefly, platelet-free plasma was mixed with donor platelet-rich plasma diluted to a platelet concentration of 250,000 platelets per microliter in the presence of 5 mM GPRP and 6 mM CaCl2), and then stimulated with 0.1 U/ml of thrombin. Samples were incubated for 90 min at room temperature with rotation, and thrombin levels were measured using cleavage of a fluorescent thrombin-specific substrate (Haemtech SN-20 Boc-L-FPR-ANSNH-C2H5) by excitation at 352 nm and emission as a function of time at 470 nm. Rates of substrate cleavage were used to calculate the concentration of thrombin in each sample.

[5] = tested on: patients with advanced cancer; assay: Safety: hemorrhage (ISTH) and toxicities (CTCAE) in phase II trial; assay type: in vivo, human
Description: as §1
The primary VTE endpoint included any symptomatic proximal or distal deep vein thrombosis, symptomatic PE or fatal PE diagnosed by autopsy, asymptomatic proximal DVT diagnosed by protocol-specified ultrasound at end of study. All suspected VTE were assessed by an independent adjudication committee that included central radiologic review of images. Criteria for new VTE included any of the following: A) A new noncompressibility of lower extremity deep venous segments by compression ultrasound (distal lower extremity thrombus qualified for primary VTE endpoint only if symptomatic). B) Intraluminal defects in two or more views on pulmonary angiography, sudden contrast cut-off of one or more vessels greater than 2.5 mm in diameter on a pulmonary angiogram; a high probability VQ lung scan showing one or more segmental perfusion defects with corresponding normal ventilation (mismatch defect); or abnormal spiral CT showing thrombus in pulmonary vessels (subsegmental or larger). All other venous or arterial events were recorded and analyzed as secondary endpoints. Criteria for major hemorrhage was according to ISTH definition (Schulman S, and Kearon C. J Thromb Haemost. 2005; 3(4):692-4). All toxicities were graded according NCI Common Terminology Criteria for Adverse Events (CTCAE). Study oversight was performed by an independent Data Safety Monitoring Committee at Dana Farber Harvard Cancer Center.

D-dimer = assay: Plasma D-dimer (Asserachrom D-Di ELISA), phase II trial in cancer patients; assay type: in vivo, human
Protocol: A multi-center, multi-dose phase II trial was conducted to evaluate, among other markers and readouts, the efficacy of targeting protein disulfide isomerase (PDI) along with soluble P-selectin with isoquercetin to reduce the hypercoagulability in cancer patients at high risk for venous thromboembolism (VTE). Patients received isoquercetin at 500 mg (cohort A) or 1000 mg (cohort B) daily for 56 days with laboratory assays at the beginning and at completion of study (along with duplex ultrasound). The primary endpoint was a reduction in D-dimer and the primary clinical endpoint included pulmonary embolism or proximal deep vein thrombosis, and also included measuring the level of soluble P-selectin. (See, Zwicker et al., JCI Insight.2019; 4(4):e125851.)
The primary endpoint of the study was comparison of plasma D-dimer at baseline and end-of-study. D-dimer is liberated from cross-linked fibrin following […] degradation. D-dimer is the most validated and commonly utilized laboratory assay in the clinic to detect deep vein thrombosis. In patients with advanced cancer, plasma D-dimer levels are commonly elevated and correlate with an increased risk for developing of VTE.
Participants were sequentially enrolled into two dosing cohorts: Cohort A (isoquercetin 500 mg) and Cohort B (isoquercetin 1000 mg). Isoquercetin was supplied in capsules containing 250 mg of isoquercetin each with 10 mg added as overage to guarantee a minimum of 250 mg of isoquercetin per capsule with added Vitamin C and Vitamin B3 by Quercegen Pharmaceuticals LLC (Boston, MA). The drug product capsules were manufactured by Pharmavize NV, Kleinmoer 4, 9030 Mariakerke, Belgium.
The ratio of components in the capsules was: 1:0.25:0.02 of isoquercetin, vitamin C, and vitamin B3, respectively. It is noted that folic acid can optionally be present in the isoquercetin composition. Isoquercetin was taken orally daily for a total of 56 days. The first 5 patients of each cohort were monitored for evidence of toxicity prior (≥1 grade 3 or higher toxicity possibly related to isoquercetin) prior to the subsequent enrollment of 25 patients into each cohort. Patients were monitored for development of a venous thromboembolic event throughout the study including a bilateral lower extremity duplex ultrasound at end of study visit (day 56±5). […]
Blood was drawn by peripheral venipuncture into 3.2% citrate. […] D-dimer was measured centrally using Asserrachrom D-Di ELISA, considered the reference standard assay for D-dimer (Stago, France) (Meyer G. et al., Blood Coagulation & Fibrinolysis. 1998; 9(7):603-8.).

soluble P-selectin [6] = assay: Soluble P-selectin (CD62) in plasma, commercial ELISA; assay type: in vivo, human; conditions: for median change in soluble P-selectin: end-of-treatment vs baseline plasma
Description: P-selectin is a transmembrane adhesion receptor that is externalized from α-granules in platelets and Weibel-Palade bodies in endothelial cells following cell activation. P-selectin can be shed from the cell surface following externalization and P-selectin shedding is increased in cardiovascular disease, sepsis, and cancer. […] As PDI inhibition alters platelet and endothelial reactivity, baseline versus end-of-treatment plasma levels of soluble P-selectin following treatment with isoquercetin was compared. As shown in FIG. 6A-FIG. 6B, there was no change in soluble P-selectin in Cohort A (FIG. 6A) (median change −0.3%, P=0.26).
as §2

soluble P-selectin [7] = conditions: standard anticoagulants compared in words; cited from earlier work
[8] = Cohort A, isoquercetin 500 mg daily
[9] = Cohort B, isoquercetin 1000 mg daily

Structure (SMILES): O=c1c(O[C@@H]2O[C@H](CO)[C@@H](O)[C@H](O)[C@H]2O)c(-c2ccc(O)c(O)c2)oc2cc(O)cc(O)c12 [isoquercetin, 2-(3,4-Dihydroxyphenyl)-5,7-dihydroxy-3-[(2S,3R,4S,5S,6R)-3,4,5-trihydroxy-6-(hydroxymethyl)oxan-2-yl]oxychromen-4-one]
- secondary VTE endpoints recorded ([1]; Cohort A, 500 mg daily, two catheter-associated DVT, one superficial venous clot): three
- secondary endpoint thrombotic events recorded ([1]; Cohort B, 1000 mg daily, superficial venous clot, lingular pulmonary vein thrombosis): two
- primary VTE endpoint events ([1]; both cohorts (500 mg and 1000 mg daily), 2-month study): no VTE that met criteria for the primary VTE endpoint; also recorded: no primary VTE endpoints observed
- proximal deep vein thrombosis, pulmonary emboli, or major hemorrhage observed ([1]; treated patients, cancer population at higher risk for thrombosis and hemorrhage): none of the following were observed
- plasma concentrations relative to IC50 of PDI activity in vitro [2]: fall below the inhibitory concentration (IC50) of PDI activity in vitro
- mean PT at 2-months ([3]; Cohort A, 500 mg daily, baseline 14.0 seconds): 14.3 s
- mean PTT at study completion ([3]; Cohort A, 500 mg daily, baseline 49.6 seconds): 45.6 s
- mean PT at 2-months ([3]; Cohort B, 1000 mg daily, baseline 15.1 seconds): 15.2 s
- mean PTT at 2-months ([3]; Cohort B, 1000 mg daily, baseline 54.2 seconds): 51.9 s
- effects in standard coagulation assays (in words) ([3]; following administration of isoquercetin, both cohorts): no effects detected
- median change in platelet-dependent thrombin generation [4, 8]: −31.1%
- median change in platelet-dependent thrombin generation [4, 9]: −57.2%
- patients developing grade 1 epistaxis ([5]; Cohort A, 500 mg daily): One
- patients developing non-severe gastrointestinal bleeding ([5]; Cohort B, 1000 mg daily, grade 1 hemorrhoid and grade 2 rectal bleeding): two
- severe adverse events (grade 3 or 4) attributed to isoquercetin ([5]; both cohorts): no severe adverse events (grade 3 or 4); also recorded: No grade 3 or 4 toxicities were reported
- major hemorrhages ([5]; both cohorts, modified intention-to treat analyses): no major hemorrhages observed
- most commonly reported toxicities on study ([5]; common toxicities of the concurrent chemotherapeutics): nausea and diarrhea
- deaths during the 2 months of follow-up ([5]; following initiation of isoquercetin): no deaths reported
- individuals with reduced D-dimer (D-dimer; Cohort B, 1000 mg daily, paired samples): 18 of 22
- median change in D-dimer (D-dimer; Cohort B, isoquercetin 1000 mg daily oral, 56 days, baseline vs end-of-study, cancer patients): −21.9%
- median decrease of D-dimer plasma concentrations (D-dimer; isoquercetin 1000 mg daily, 56 days, printed as decrease without sign): 21.9%
- reduction of D-dimer levels (in words) (D-dimer; lower dose, isoquercetin 500 mg): did not reduce D-dimer levels
- median change in soluble P-selectin (soluble P-selectin [6]; [8]): −0.3%
- patients with decreased soluble P-selectin (in words) (soluble P-selectin [6]; [9]): decreased in all patients except one
- median change in soluble P-selectin (soluble P-selectin [6]; [9]): −57.9%

Structure (SMILES): CC(=O)CC(c1ccccc1)c1c(O)c2ccccc2oc1=O (stereo not drawn) [warfarin]
- lowering of soluble P-selectin levels (activity shared with isoquercetin or not) (soluble P-selectin [7]): not shared

Structure (SMILES): O=C(NC[C@H]1CN(c2ccc(N3CCOCC3=O)cc2)C(=O)O1)c1ccc(Cl)s1 [rivaroxaban]
- lowering of soluble P-selectin levels (activity shared with isoquercetin or not) (soluble P-selectin [7]): not shared
